From the Kinase Knowledgebase extract (Sharma et al. 2016) come the findings set out here.

This assay deals with MAPK14 (human) (UniProt Q16539). Kind of assay: Inhibition of MAPK14 Kinase Activity.
Chain of MAPK14 (human) (Q16539 whole entry, looked up): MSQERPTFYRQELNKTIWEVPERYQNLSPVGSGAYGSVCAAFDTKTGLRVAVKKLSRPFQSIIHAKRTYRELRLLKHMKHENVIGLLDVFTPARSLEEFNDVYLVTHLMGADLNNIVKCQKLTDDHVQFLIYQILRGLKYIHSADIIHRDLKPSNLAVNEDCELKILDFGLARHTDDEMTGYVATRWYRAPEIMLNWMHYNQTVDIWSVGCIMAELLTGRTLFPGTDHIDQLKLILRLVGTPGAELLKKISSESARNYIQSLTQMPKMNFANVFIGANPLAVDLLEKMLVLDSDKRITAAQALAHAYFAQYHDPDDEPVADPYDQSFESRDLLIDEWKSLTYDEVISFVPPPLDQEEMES
`CC(C)(CN)n1c(=O)[nH]c2cc(Nc3ccccc3F)ccc21` registered an IC50 below 1000 nM. With `O=c1[nH]c2cc(Nc3cccc(F)c3)ccc2n1CC1CCCCC1` the figure was below 1000 nM; with `COc1cccc(Cn2c(=O)[nH]c3cc(Nc4ccccc4)ccc32)c1`, below 1000 nM; with `O=c1[nH]c2cc(Nc3ccccc3F)ccc2n1CC1CCCCC1`, below 1000 nM.

`COc1ccccc1Nc1ccc2c(c1)[nH]c(=O)n2CC1CCCCC1` displayed an IC50 below 1000 nM. With `CN(C)CC(C)(C)n1c(=O)[nH]c2cc(Nc3ccccc3F)ccc21` the figure was below 1000 nM; with `Cc1ccccc1Nc1ccc2c(c1)[nH]c(=O)n2C(C)(C)CN`, below 1000 nM; with `CN1CCC(n2c(=O)[nH]c3cc(Nc4ccccc4)ccc32)C1` (configuration not stated), below 1000 nM. With `O=c1[nH]c2cc(Nc3ccccc3)ccc2n1Cc1ccccc1` the figure was below 1000 nM. With `O=c1[nH]c2cc(Nc3ccccc3)ccc2n1Cc1c(F)cccc1F` the figure was below 1000 nM; with `CN1CCC(n2c(=O)[nH]c3cc(Nc4ccccc4F)ccc32)C1` (configuration not stated), below 1000 nM.

For `O=c1[nH]c2cc(Nc3ccccc3)ccc2n1C1CCc2ccccc21` (configuration not stated), the IC50 is below 1000 nM. For `O=c1[nH]c2cc(Nc3ccccc3F)c(N3CCNCC3)cc2n1CC1CCCCC1`, the IC50 was below 1000 nM.

Compound `O=c1[nH]c2cc(Nc3ccccc3)ccc2n1CC1CCCCC1` yielded an IC50 below 1000 nM. For the compound `CS(=O)(=O)N1CCC(n2c(=O)[nH]c3cc(Nc4ccc(F)cc4F)ccc32)C1` (configuration not stated), the IC50 is below 1000 nM. With `CC(C)(C)n1c(=O)[nH]c2cc(Nc3ccccc3)ccc21` the figure was below 1000 nM; with `O=c1[nH]c2cc(Nc3ccc(F)cc3)ccc2n1CC1CCCCC1`, below 1000 nM. With `O=c1[nH]c2cc(Nc3ccccc3)c(N3CCNCC3)cc2n1CC1CCCCC1` the figure was below 1000 nM. For `CN1CCN(c2cc3c(cc2Nc2ccccc2)[nH]c(=O)n3CC2CCCCC2)CC1`, the IC50 was below 1000 nM. Consider `CC(c1ccccc1)n1c(=O)[nH]c2cc(Nc3ccccc3)ccc21` (configuration not stated), for which the IC50 is below 1000 nM. For `O=c1[nH]c2cc(Nc3ccc(F)cc3F)ccc2n1CC1CCCCC1`, the IC50 is below 1000 nM.

`O=c1[nH]c2cc(Nc3ccccc3)ccc2n1CCc1ccccc1` showed an IC50 below 1000 nM. As to `Cc1ccccc1Nc1cc2[nH]c(=O)n(CC3CCCCC3)c2cc1N1CCN(C)CC1`, the IC50 is below 1000 nM. With `Cc1ccccc1Nc1ccc2c(c1)[nH]c(=O)n2C1CCN(C)C1` (configuration not stated) the figure was below 1000 nM; with `CCS(=O)(=O)N1CCC(n2c(=O)[nH]c3cc(Nc4ccc(F)cc4F)ccc32)C1` (configuration not stated), below 1000 nM. With `Cc1ccccc1Nc1ccc2c(c1)[nH]c(=O)n2C1CCN(S(C)(=O)=O)C1` (configuration not stated) the figure was below 1000 nM.

In turn, `Cc1ccccc1Nc1ccc2c(c1)[nH]c(=O)n2C(C)(C)CN(C)C` showed an IC50 below 1000 nM. With `CNCC(C)(C)n1c(=O)[nH]c2cc(Nc3ccccc3C)ccc21` the figure was below 1000 nM. With `CS(=O)(=O)N1CCC(n2c(=O)[nH]c3cc(Nc4ccccc4F)ccc32)C1` (configuration not stated) the figure was below 1000 nM; with `CS(=O)(=O)N1CCC(n2c(=O)[nH]c3cc(Nc4ccc(F)cc4)ccc32)C1` (configuration not stated), below 1000 nM; with `Cc1ccccc1Nc1ccc2c(c1)[nH]c(=O)n2C1CCNC1` (configuration not stated), below 1000 nM.

For `CNCC(C)(C)n1c(=O)[nH]c2cc(Nc3ccc(F)cc3)ccc21`, the IC50 was below 1000 nM. In turn, `O=c1[nH]c2cc(Nc3ccccc3F)ccc2n1C1CCNC1` (configuration not stated) displayed an IC50 below 1000 nM. In the case of `O=c1[nH]c2cc(Nc3ccc(F)c(F)c3)ccc2n1CC1CCCCC1`, the IC50 was below 1000 nM. Turning to `CCS(=O)(=O)N1CCC(n2c(=O)[nH]c3cc(Nc4ccc(F)cc4)ccc32)C1` (configuration not stated), the IC50 was below 1000 nM. With `CN1CCC(n2c(=O)[nH]c3cc(Nc4ccc(F)cc4F)ccc32)C1` (configuration not stated) the figure was below 1000 nM. Turning to `Cc1ccccc1Nc1ccc2c(c1)[nH]c(=O)n2CC1CCCCC1`, the IC50 was below 1000 nM. With `O=c1[nH]c2cc(Nc3ccccc3)ccc2n1C1CCCc2ccccc21` (configuration not stated) the figure was below 1000 nM; with `CC(C)(CN)n1c(=O)[nH]c2cc(Nc3ccc(F)cc3F)ccc21`, below 1000 nM. For the compound `O=c1[nH]c2cc(Nc3ccc(F)cc3)ccc2n1C1CCNC1` (configuration not stated), the IC50 is below 1000 nM. With `O=c1[nH]c2cc(Nc3ccccc3)ccc2n1C1CCNC1` (configuration not stated) the figure was below 1000 nM; with `O=c1[nH]c2cc(Nc3ccccc3)ccc2n1-c1ccccc1`, below 1000 nM. With `CN(C)CC(C)(C)n1c(=O)[nH]c2cc(Nc3ccccc3)ccc21` the figure was below 1000 nM; with `CCS(=O)(=O)N1CCC(n2c(=O)[nH]c3cc(Nc4ccccc4F)ccc32)C1` (configuration not stated), below 1000 nM. `Cc1ccccc1Nc1cc2[nH]c(=O)n(CC3CCCCC3)c2cc1N(C)CCCN(C)C`: the IC50 is below 1000 nM.

The compound `O=c1[nH]c2cc(Nc3ccccc3)ccc2n1CC1CCCO1` (configuration not stated) returned an IC50 below 1000 nM.

Compound `CN1CCN(c2cc3c(cc2Nc2ccccc2F)[nH]c(=O)n3C2CCCC2)CC1` registered an IC50 below 1000 nM. With `O=c1[nH]c2cc(Nc3ccccc3)ccc2n1Cc1cccnc1` the figure was below 1000 nM; with `CNCC(C)(C)n1c(=O)[nH]c2cc(Nc3ccccc3F)ccc21`, below 1000 nM; with `O=c1[nH]c2cc(Nc3ccccc3)ccc2n1C1CCCC1`, below 1000 nM. With `CCS(=O)(=O)N1CCC(n2c(=O)[nH]c3cc(Nc4ccccc4)ccc32)C1` (configuration not stated) the figure was below 1000 nM; with `CC(C1CCCCC1)n1c(=O)[nH]c2cc(Nc3ccccc3)ccc21` (configuration not stated), below 1000 nM; with `O=c1[nH]c2cc(Nc3ccc(F)cc3F)ccc2n1C1CCNC1` (configuration not stated), below 1000 nM. `Cc1ccc(Nc2ccc3c(c2)[nH]c(=O)n3CC2CCCCC2)cc1N`: the IC50 was below 1000 nM. As to `CNCC(C)(C)n1c(=O)[nH]c2cc(Nc3ccccc3)ccc21`, the 50% inhibitory concentration (IC50) is below 1000 nM. `C=C/C(=C\C=C(/C)F)Nc1ccc2c(c1)[nH]c(=O)n2C(C)(C)CN(C)C` had an IC50 below 1000 nM. Take `CN1CCC(n2c(=O)[nH]c3cc(Nc4ccc(F)cc4)ccc32)C1` (configuration not stated): the IC50 is below 1000 nM. With `CC(C)(CN)n1c(=O)[nH]c2cc(Nc3ccc(F)cc3)ccc21` the figure was below 1000 nM; with `CN(C)CC(C)(C)n1c(=O)[nH]c2cc(Nc3ccc(F)cc3F)ccc21`, below 1000 nM; with `Cc1ccccc1Nc1cc2[nH]c(=O)n(CC3CCCCC3)c2cc1N(C)CCN(C)C`, below 1000 nM.

Consider `CC(C)(CN)n1c(=O)[nH]c2cc(Nc3ccccc3)ccc21`, for which the IC50 was below 1000 nM.

In turn, `CCS(=O)(=O)N1CCC(n2c(=O)[nH]c3cc(Nc4ccccc4C)ccc32)C1` (configuration not stated) registered an IC50 below 1000 nM.

What is called IC50 is the concentration that inhibits the measured activity by half. A low value points to higher potency.
